Consider one molecule from US20170290801A1 (Hill's Pet Nutrition, Inc., priority 2009, published 2017).

In general, AUC(0-inf) refers to the area under the concentration-time curve extrapolated to infinity. Low readings indicate less exposure, high ones more exposure.

The nature of this data set: in vivo. Further details: species or system dogs. The conditions noted are these: dog; for AUC0-infinity / AUC(0-inf): po; for AUC(0-inf): AUC0-infinity. As to the method:
The control food without ALA is fed throughout the study period. The analytical results of the foods fed in this study are in Table 1. A three period Latin square design was used to create a 3×3 factorial arrangement of treatments with dogs assigned to a group following a planned treatment assignment. […] Pharmacokinetic parameters are calculated using a non-compartmental model and analyzed using non-parametric tests of WinNonlin 4.1 in SAS v9.]. There was a significant effect of dose for all delivery methods (P<0.05). […]

Regarding `O=C(O)CCCCC1CCSS1` (racemic) [lipoic acid, dl-alpha-lipoic acid], the “elimination half life, co-manufactured food compared with capsule” value is recorded as “greater”; the “maximum serum concentrations, effect of delivery method” value is on record as “lower maximum serum concentrations”; the “total area under the curve, co-manufactured food compared with capsule” value is given as “greater”. Where the note is “12.5 mg/kg”, this molecule gave an AUC0-infinity of 92215 ng·min/mL and an area under the curve AUC(0-inf) of 1240 ng·h/mL. In addition, where the note is “25 mg/kg”, the AUC0-infinity is 227304 ng·min/mL and the area under the curve AUC(0-inf) is 3580 ng·h/mL.
